Laboratory results taken from patent US8877757B2, “Pyrazine derivatives and use as PI3K inhibitors” (Merck Serono SA, priority 2005, dated 2014).
Values belong to the compound of their own block, whether it stands above or below them.

Key:
[1] = biological target: Human recombinant GST-PI3δ (Homo sapiens (Human), UniProt O00329); test: PI3K induced-lipid phosphorylation scintillation proximity assay (neomycin-coated SPA beads); type: biochemical
Excerpt: The efficacy of compounds of the invention in inhibiting the PI3K induced-lipid phosphorylation may be tested in the following binding assay.
The assay combines the scintillation proximity assay technology (SPA, Amersham) with the capacity of neomycin (a polycationic antibiotic) to bind phospholipids with high affinity and specificity. The Scintillation Proximity Assay is based on the properties of weakly emitting isotopes (such as ^3H, ^125I, ^33P). Coating SPA beads with neomycin allows the detection of phosphorylated lipid substrates after incubation with recombinant PI3K and radioactive ATP in the same well, by capturing the radioactive phospholipids to the SPA beads through their specific binding to neomycin.
To a 96 wells MTP containing 10 μl of the test compound of Formula (I) (solubilized in 10% DMSO; to yield a concentration of 100, 25, 5.0, 1.25, 0.312, 0.078, 0.0195, 0.00488, 0.00122 and 0.0003 μM of the test compound), the following assay components are added: 1) 10 μl of lipid micelles 2) 20 μl of Kinase buffer ([^33P]γ-ATP 162 μM/300 nCi, MgCl2 2.5 mM, DTT 2.5 mM, Na3VO4 25 μM in Hepes 40 mM, pH 7.4) and 3) 10 μl (100 ng) of Human recombinant GST-PI3δ (in Hepes 40 mM, pH 7.4, ethylenglycol 4%). After incubation at room temperature for 120 minutes, with gentle agitation, the reaction is stopped by addition of 200 μl of a solution containing 250 μg of neomycin-coated PVT SPA beads, ATP 60 mM and EDTA 6.2 mM in PBS. The assay is further incubated at room temperature for 60 minutes with gentle agitation to allow binding of phospholipids to neomycin-SPA beads. After precipitation of the neomycin-coated PVT SPA beads for 5 minutes at 1500×g, radioactive PtdIns(3)P is quantified by scintillation counting in a Wallac MicroBeta™ plate counter.
The values indicated in Table I below refer to the IC50 (μM) with respect to PI3K, i.e. the amount necessary to achieve 50% inhibition of said target. Said values show a considerable inhibitory potency of pyrazine compounds with regard to PI3K.

[2] = system: Akt phosphorylation in B cells; test: IgM-induced Akt phosphorylation in B cell (human PBMC, flow cytometry); type: cell-based; conditions: 5 min, CD19+ IgM+ B cells in human PBMC, anti IgM for 5 minutes, read-out: IC50, inhibition of IgM-induced Akt Phosphorylation
Procedure: Human PBMC were prepared from a Buffy coat (Geneve Hospital) after a Ficoll gradient (FICOLL-PAQUE Plus PHARMACIA ref: 17-1440-03).
Cell concentration was adjusted to 10^6 cells per ml in RPMI (GIBCO Ref: 72400-21) without serum. Before stimulation, 90 μl of PBMC suspension was incubated with 10 μl of diluted compound in a 96 well round bottom plate for 20 minutes at 37° C.
For B cell activation, 30 μl of Fab′2 Goat anti IgM (Jackson Immuno-research) at 10 μg/ml was added to each well. After 5 minutes, cell activation was stopped with 4% paraformaldehyde (10 minutes at room temperature).
Fixed PBMC were then treated for 20 minutes with 0.15% Triton, washed twice with PBS and permeabilized with 50% methanol for 15 minutes.
PBMC were washed twice in PBS, resuspended in: PBS-4% FCS and incubated with anti P-Akt (1/100 dilution) for one hour at room temperature.
After one wash, PBMC were further stained for 30 minutes with a mixture of anti-CD19-PE (BD Biosciences), anti-IgM-FITC (BD Biosciences) and goat anti rabbit IgG-Alexa 647 (Molecular probe).
After washing, PBMC (Peripheral Blood Mononuclear Cells) were analysed on a FACSCalibur instrument (BD Biosciences) equipped with a 633 helium-neon laser, or stored at 4° C. for further analysis. 510^3 B cells events were gathered per sample in the CD19 positive region.
For the analysis, a threshold was applied on P-Akt histogram of CD 19+ IgM+ lymphocytes cells from the non-stimulated samples and the percentage of cells above this threshold was determined for each sample.

[3] = system: PKB/Akt phosphorylation in mast cells; test: SCF-induced PKB/Akt phosphorylation in mast cells; type: cell-based, mice; conditions: Mast cell, 0.25 h; mast cells derived from mouse bone marrow, 20 ng/mL SCF for 15 minutes; read-out: IC50, inhibition of SCF-induced Akt Phosphorylation
Procedure: Protocol: Primary bone marrow cells were isolated from 4-8 weeks old wild type mice and derived to mast cells by incubation with medium containing 20 ng/mL of stem cell factor (SCF) (PeproTech, Switzerland) and 20 ng/mL of IL-3 (PeproTech, Switzerland) for at least 4 weeks. Confirmation of the expression of mast cell specific surface markers was done by FACS analysis using antibodies against c-kit (cKit-PE mouse antibody; Pharmingen). Cells were maintained in culture in the presence of SCF and IL-3. To induce PKB/Akt phosphorylation, mast cells were resuspended at 2.5×10^6 cells/mL and starved in medium containing no SCF or IL-3 for 24 h. After preincubation with compounds or 1% DMSO for 20 minutes, cells were activated with 20 ng/mL of SCF for 15 minutes at 37° C., fixed in 1.5% paraformaldehyde for 20 minutes and permeabilised with 0.2% Triton X-100 for 10 minutes, at room temperature. PKB/Akt phosphorylation was visualized using phospho-Ser-473 specific Akt antibodies (Cell Signaling) and standard FACS protocols.

Chain of Human recombinant GST-PI3δ (O00329 whole entry): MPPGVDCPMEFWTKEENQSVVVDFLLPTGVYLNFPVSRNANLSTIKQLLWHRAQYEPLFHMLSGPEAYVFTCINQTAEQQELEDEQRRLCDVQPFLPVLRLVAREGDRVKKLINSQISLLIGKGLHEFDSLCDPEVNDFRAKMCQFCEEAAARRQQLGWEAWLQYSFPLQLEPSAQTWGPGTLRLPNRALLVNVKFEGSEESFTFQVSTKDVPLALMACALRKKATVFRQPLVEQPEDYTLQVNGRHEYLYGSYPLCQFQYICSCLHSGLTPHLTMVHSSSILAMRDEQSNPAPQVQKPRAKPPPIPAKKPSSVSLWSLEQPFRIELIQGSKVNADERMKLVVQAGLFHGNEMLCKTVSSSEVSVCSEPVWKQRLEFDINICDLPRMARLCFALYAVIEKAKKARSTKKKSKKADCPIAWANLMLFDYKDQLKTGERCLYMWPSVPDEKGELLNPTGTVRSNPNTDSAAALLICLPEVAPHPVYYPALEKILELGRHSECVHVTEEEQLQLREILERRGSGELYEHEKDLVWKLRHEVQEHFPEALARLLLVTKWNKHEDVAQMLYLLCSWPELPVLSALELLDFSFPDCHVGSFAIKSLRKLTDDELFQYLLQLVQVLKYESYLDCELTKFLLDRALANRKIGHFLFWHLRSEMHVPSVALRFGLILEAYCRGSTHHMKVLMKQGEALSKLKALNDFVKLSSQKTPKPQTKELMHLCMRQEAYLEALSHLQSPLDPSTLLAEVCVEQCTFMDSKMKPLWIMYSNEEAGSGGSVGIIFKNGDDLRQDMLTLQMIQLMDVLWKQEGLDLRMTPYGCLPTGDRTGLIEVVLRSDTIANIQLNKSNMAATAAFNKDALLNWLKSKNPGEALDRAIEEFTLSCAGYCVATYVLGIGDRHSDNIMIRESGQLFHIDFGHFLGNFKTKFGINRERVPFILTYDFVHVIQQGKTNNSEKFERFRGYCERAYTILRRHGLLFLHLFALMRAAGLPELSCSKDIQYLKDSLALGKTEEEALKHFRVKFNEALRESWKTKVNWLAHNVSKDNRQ

Structure (SMILES): COc1ccc(OC)c(Nc2nc3ccccc3nc2NS(=O)(=O)c2cccc(C#N)c2)c1 [Example 11, 3-Cyano-N-{3-[(2,5-dimethoxyphenyl)amino]quinoxalin-2-yl}benzene sulfonamide]
IC50 [1]: 430 nM

Structure (SMILES): COc1ccc(OC)c(Nc2nc3ccccc3nc2NS(=O)(=O)c2ccccc2F)c1 [Example 14, N-{3-[(2,5-dimethoxyphenyl)amino]quinoxalin-2-yl}-2-fluorobenzene sulfonamide]
IC50 [2]: 34 nM

Structure (SMILES): COc1cc(Nc2nc3ccccc3nc2NS(=O)(=O)c2ccccc2F)cc(OC)c1 [Example 15, N-{3-[(3,5-dimethoxyphenyl)amino]quinoxalin-2-yl}-2-fluorobenzene sulfonamide]
IC50 [2]: 26 nM

Structure (SMILES): COc1cc(Nc2nc3ccccc3nc2NS(=O)(=O)c2cn(C)cn2)cc(OC)c1 [Example 20, N-{3-[(3,5-dimethoxyphenyl)amino]quinoxalin-2-yl}-1-methyl-1H-imidazole-4-sulfonamide]
IC50 [3]: 410 nM
IC50 [2]: 24 nM

Structure (SMILES): COc1cc(Nc2nc3ccccc3nc2NS(=O)(=O)c2ccccc2Cl)cc(OC)c1 [Example 38, 2-chloro-N-{3-[(3,5-dimethoxyphenyl)amino]quinoxalin-2-yl}benzene sulfonamide]
IC50 [3]: 1890 nM
IC50 [2]: 40 nM

Structure (SMILES): COc1cc(Nc2nc3ccccc3nc2NS(=O)(=O)c2ccc(C#N)cc2)cc(OC)c1 [Example 39, 4-cyano-N-{3-[(3,5-dimethoxyphenyl)amino]quinoxalin-2-yl}benzene sulfonamide]
IC50 [3]: 350 nM
IC50 [2]: 11 nM

Structure (SMILES): COc1ccc(OC)c(Nc2nc3ccccc3nc2NS(=O)(=O)c2ccccc2Cl)c1 [Example 42, 2-chloro-N-{3-[(2,5-dimethoxyphenyl)amino]quinoxalin-2-yl}benzene sulfonamide]
IC50 [2]: 110 nM

Structure (SMILES): COc1cc(Nc2nc3ccccc3nc2NS(=O)(=O)c2ccc(F)cc2)cc(OC)c1 [Example 56, N-{3-[(3,5-dimethoxyphenyl)amino]quinoxalin-2-yl}-4-fluorobenzene Sulfonamide]
IC50 [3]: 2420 nM

Structure (SMILES): COc1cc(Nc2nc3ccccc3nc2NS(=O)(=O)c2cccnc2)cc(OC)c1 [Example 95, N-{3-[(3,5-dimethoxyphenyl)amino]quinoxalin-2-yl}pyridine-3-sulfonamide]
IC50 [3]: 1600 nM

Structure (SMILES): COc1ccc(C)c(Nc2nc3ccccc3nc2NS(=O)(=O)c2cccnc2)c1 [Example 101, N-{3-[(5-methoxy-2-methylphenyl)amino]quinoxalin-2-yl}pyridine-3-sulfonamide]
IC50 [2]: 150 nM

Structure (SMILES): COc1cc(Nc2nc3ccccc3nc2NS(=O)(=O)c2ccc(C)nc2)cc(OC)c1 [Example 106, N-{3-[(3,5-dimethoxyphenyl)amino]quinoxalin-2-yl}-6-methylpyridine-3-sulfonamide]
IC50 [3]: 1220 nM

Further lines, results first:

IC50 [3]: 820 nM
Structure (SMILES): COc1ccc(C)c(Nc2nc3ccccc3nc2NS(=O)(=O)c2ccc(C#N)cc2)c1 [Example 109, 4-cyano-N-{3-[(5-methoxy-2-methylphenyl)amino]quinoxalin-2-yl}benzenesulfonamide]

IC50 [2]: 140 nM
Structure (SMILES): COc1ccc(C)c(Nc2nc3ccccc3nc2NS(=O)(=O)c2ccc(C)nc2)c1 [Example 110, N-{3-[(5-methoxy-2-methylphenyl)amino]quinoxalin-2-yl}-6-methylpyridine-3-sulfonamide]

IC50 [2]: 26 nM
Structure (SMILES): COc1ccc(Cl)c(Nc2nc3ccccc3nc2NS(=O)(=O)c2ccc(C)nc2)c1 [Example 111, N-{3-[(2-chloro-5-methoxyphenyl)amino]quinoxalin-2-yl}-6-methylpyridine-3-sulfonamide]

IC50 [2]: 290 nM
Structure (SMILES): COc1cc(Nc2nc3ccccc3nc2NS(=O)(=O)c2cccc(CN3CCOCC3)c2)cc(OC)c1 [Example 129, N-{3-[(3,5-dimethoxyphenyl)amino]quinoxalin-2-yl}-3-(morpholin-4-ylmethyl)benzenesulfonamide]

IC50 [3]: 130 nM
IC50 [2]: 60 nM
Structure (SMILES): COc1cc(Nc2nc3ccccc3nc2NS(=O)(=O)c2ccc(CN3CCN(C)CC3)cc2)cc(OC)c1 [Example 130, N-{3-[(3,5-dimethoxyphenyl)amino]quinoxalin-2-yl}-4-[(4-methylpiperazin-1-yl)methyl]benzenesulfonamide]

IC50 [3]: 150 nM
IC50 [2]: 13 nM
Structure (SMILES): COc1ccc(OC)c(Nc2nc3ccccc3nc2NS(=O)(=O)c2ccc(CN)cc2)c1 [Example 131, 4-(aminomethyl)-N-{3-[(2,5-dimethoxyphenyl)amino]quinoxalin-2-yl}benzenesulfonamide]

IC50 [3]: 680 nM
Structure (SMILES): COc1cc(Nc2nc3ccccc3nc2NS(=O)(=O)c2cccc(CO)c2)cc(OC)c1 [Example 132, N-{3-[(3,5-dimethoxyphenyl)amino]quinoxalin-2-yl}-3-(hydroxymethyl)benzenesulfonamide]

IC50 [3]: 210 nM
Structure (SMILES): COc1cc(Nc2nc3ccccc3nc2NS(=O)(=O)c2ccc(CO)cc2)cc(OC)c1 [Example 134, N-{3-[(3,5-dimethoxyphenyl)amino]quinoxalin-2-yl}-4-(hydroxymethyl)benzenesulfonamide]

IC50 [3]: 540 nM
Structure (SMILES): COc1cc(Nc2nc3ccccc3nc2NS(=O)(=O)c2ccc(CO)nc2)cc(OC)c1 [Example 135, N-{3-[(3,5-dimethoxyphenyl)amino]quinoxalin-2-yl}-6-(hydroxymethyl)pyridine-3-sulfonamide]

IC50 [3]: 1220 nM
IC50 [2]: 370 nM
Structure (SMILES): COc1cc(Nc2nc3ccccc3nc2NS(=O)(=O)c2ccc(CN3CCOCC3)cc2)cc(OC)c1 [Example 136, N-{3-[(3,5-dimethoxyphenyl)amino]quinoxalin-2-yl}-4-(morpholin-4-ylmethyl)benzenesulfonamide]

IC50 [3]: 400 nM
IC50 [2]: 40 nM
Structure (SMILES): COc1cc(Nc2nc3ccccc3nc2NS(=O)(=O)c2cccc(CN3CCN(C)CC3)c2)cc(OC)c1 [Example 137, N-{3-[(3,5-dimethoxyphenyl)amino]quinoxalin-2-yl}-3-[(4-methylpiperazin-1-yl)methyl]benzenesulfonamide]

IC50 [3]: 270 nM
IC50 [2]: 27 nM
Structure (SMILES): COc1cc(Nc2nc3ccccc3nc2NS(=O)(=O)c2cccc(CN(C)C)c2)cc(OC)c1 [Example 139, N-{3-[(3,5-dimethoxyphenyl)amino]quinoxalin-2-yl}-3-[(dimethylamino)methyl]benzenesulfonamide]

IC50 [3]: 390 nM
Structure (SMILES): COc1cc(Nc2nc3ccccc3nc2NS(=O)(=O)c2ccc(CN3CCN(C)CC3)nc2)cc(OC)c1 [Example 149, N-{3-[(3,5-dimethoxyphenyl)amino]quinoxalin-2-yl}-6-[(4-methylpiperazin-1-yl)methyl]pyridine-3-sulfonamide]

IC50 [3]: 90 nM
IC50 [2]: 7 nM
Structure (SMILES): COc1cc(Nc2nc3ccccc3nc2NS(=O)(=O)c2ccc(CN)s2)cc(OC)c1 [Example 150, 5-(aminomethyl)-N-{3-[(3,5-dimethoxyphenyl)amino]quinoxalin-2-yl}thiophene-2-sulfonamide]
